Here are results for one molecule from paper PMC9030166, “Natural Phaeosphaeride A Derivatives Overcome Drug Resistance of Tumor Cells and Modulate Signaling Pathways” (Pharmaceuticals, 2022).

In one assay the test system is A431 cells. The experiment in a line: IC50 on A431 cells (xCelligence RTCA cell index). It counts as cell-based. The conditions noted are these: Homo sapiens, A-431. An excerpt:
A431 cells are characterized by a high inducibility of transcription factors STAT3 and STAT5. In turn, phaeosphaeride A and its derivatives are probably inhibitors of the STAT3 gene. Therefore, the A431 cell line was chosen as a model for searching for possible targets for the action of phaeosphaeride A derivatives. Table 7 presents IC50 data for phaeosphaeride A derivatives on A431 cells.
(§1) The effect of various concentrations of PPA derivatives on the cell culture was studied using xCelligence RTCA equipment (AceaBioscience, San Diego, CA, USA). The concentration closest to the IC50 (10 μM) was chosen as the experimental concentration. The selected concentration of phaeosphaeride A derivatives allows for the assessment of the early effect of compounds on cells and compares their effectiveness. In this experiment, the signaling pathways Akt (pSer473), p70S6K (pThr412), NFkB (p65-pSer536), and CREB (pSer133) were not activated (Table 8). The stress-activated signaling pathways ERK/MAP kinase 1/2 (pThr185/pTyr187), JNK (pThr183/pTyr185), and p38 (pThr180/pTyr182) were activated for these compounds.
To determine the integral cellular response using the xCelligence RTCA equipment (AceaBioscience, Santa Clara, CA, USA), 20 thousand cells were inoculated into a well of a specialized plate allowing the determination of the cell index in real time and cultured in complete growth medium. The next day after the seeding, the medium was replaced with an experimental one (compounds at concentrations of […]). The cell index was monitored for 3 days after the addition of the xenobiotic. The concentration closest to the IC50 (10 μM) was chosen as the experimental concentration.

The next assay relates to Akt (pSer473). Nature of the assay: MILLIPLEX MAP 9-Plex, Akt active form in A431 lysates. It counts as cell-based, human. Conditions: A431 cell lysates, 10 μM, 1 h, M ± mx; control 76.4 ± 16.9.
Description: (§2) We used the MILLIPLEX MAP Multi-Pathway Magnetic Bead 9-Plex-Cell Signaling Multiplex Assay, which allows the simultaneous detection of nine phosphorylated proteins that are markers of the main intracellular signaling pathways (phosphorylation site is indicated in parentheses), a universal transcription factor that controls the expression of immune response genes; apoptosis and cell cycle NFκB (pS536); cAMP-dependent transcription factor (CREB (pS133); mitogen-activated kinase p38 (pT180/pY182); stress-activated protein kinase JNK (pT183/pY185); ribosomal […]; transcription factors STAT3 (pS727) and STAT5A/B (pY694/699); protein kinase B (Akt) (pS473); and kinase regulated by extracellular signals ERK1/2 (pT185/pY187).
as §1
(§3) We used a MILLIPLEX MAP Multi-Pathway Magnetic Bead 9-Plex-Cell Signaling Multiplex Assay kit (Merck/Millipore), according to the manufacturer’s protocol. A431 cells were cultured in DMEM with 10% FBS in 24-well plates. Compounds were added to the subconfluent cells at a concentration of 10 μM in DMEM medium for 1 h. Each compound was added in 5 experimental repeats. Cell lysates were prepared with lysis buffer (Millipore) with protease inhibitors (Complete, Roche); the protein concentration in the lysates was determined by the Lowry method. In samples equalized in protein concentration, the active forms of kinase cascades were determined using a Bio-Plex 200 fluorescent analyzer (Bio-Rad).

For the next assay, the system named is CREB (pSer133). The experiment in a line: MILLIPLEX MAP 9-Plex, CREB active form in A431 lysates. It counts as cell-based, human. The conditions noted are these: A431 cell lysates, 10 μM, 1 h, M ± mx; control 154.5 ± 34.2.
Description: as §2, §1, §3

For assay [1], the system named is ERK 1/2 (pThr185/pTyr187). The experiment in a line: MILLIPLEX MAP 9-Plex, ERK 1/2 active form in A431 lysates. It counts as cell-based, human. Conditions: 10 μM.
Description: as §2, §1, §3

Another assay deals with JNK (pThr183/pTyr185). Nature of the assay: MILLIPLEX MAP 9-Plex, JNK active form in A431 lysates. It counts as cell-based, human. The conditions noted are these: 10 μM.
Description: as §2, §1, §3

For a further assay, the system named is p38 (pThr180/pTyr182). Nature of the assay: MILLIPLEX MAP 9-Plex, p38 active form in A431 lysates. It counts as cell-based, human. Conditions: 10 μM.
Description: as §2, §1, §3

The next assay concerns p70S6K (pThr389/412). Nature of the assay: MILLIPLEX MAP 9-Plex, p70S6K active form in A431 lysates. It counts as cell-based, human. Conditions: A431 cell lysates, 10 μM, 1 h, M ± mx; control 39.9 ± 7.2.
Description: as §2, §1, §3

The test system of the next assay is STAT3 (pSer727). The experiment in a line: MILLIPLEX MAP 9-Plex, STAT3 active form in A431 lysates. It counts as cell-based, human. The conditions noted are these: A431 cell lysates, 10 μM, 1 h, M ± mx; control 70.7 ± 18.3.
Description: as §2, §1, §3

Another assay deals with STAT5 (pTyr694/699). Nature of the assay: MILLIPLEX MAP 9-Plex, STAT5 active form in A431 lysates. The conditions noted are these: A431 cell lysates, 10 μM, 1 h, M ± mx; control 44.2 ± 10.2. It counts as cell-based, human.
Description: as §2, §1, §3

Another assay deals with STAT3/DNA binding. Details: method as in PMID 18668431. Conditions: read-out: IC50 value, inhibition of STAT3/DNA binding; cited from earlier work.

Take `C=C1C2=C(C(=O)N1OC)[C@H](O)[C@@](C)(O)[C@H](CCCCC)O2` [PPA, phaeosphaeride A]: the IC50 with A431 cells was more than 50 µM; at STAT3/DNA binding, 610 µM. In addition, the “Akt (pSer473) fluorescence intensity” value in the assay with Akt (pSer473) is given as 123.5 ± 4.9 *↑ rel. units. Besides, in the assay with CREB (pSer133), the “CREB (pSer133) fluorescence intensity” value is 291.0 ± 32.8 *↑ rel. units. The “ERK ½ (pThr185/pTyr187) fluorescence intensity” value in assay [1] (A431 cell lysates, 1 h, M ± mx, control 839.7 ± 248.9) came out at 995.4 ± 46.5 rel. units. Moreover, the “activation of signaling pathway ERK/MAP kinase 1/2 (pThr185/pTyr187), in words” value in [1] (A431 cells) is “only slightly activated”. Moreover, the “JNK (pThr183/pTyr185) fluorescence intensity” value with JNK (pThr183/pTyr185) (A431 cell lysates, 1 h, M ± mx, control 50.9 ± 10.5) is given as 132.8 ± 9.1 *↑ rel. units. The “activation of signaling pathway JNK (pThr183/pTyr185), in words” value with JNK (pThr183/pTyr185) (A431 cells) is listed as “only slightly activated”. Further, the “p38 (pThr180/pTyr182) fluorescence intensity” value in the assay on p38 (pThr180/pTyr182) (A431 cell lysates, 1 h, M ± mx, control 567.7 ± 266.6) is recorded as 1459.1 ± 117.6 *↑ rel. units. In addition, in the assay with p38 (pThr180/pTyr182) (A431 cells), the “activation of signaling pathway p38 (pThr180/pTyr182), in words” value is “only slightly activated”. Further, the “p70S6K (pThr389/412) fluorescence intensity” value in the assay on p70S6K (pThr389/412) came out at 46.1 ± 2.9 rel. units. Besides, the “STAT3 (pSer727) fluorescence intensity” value in the assay with STAT3 (pSer727) is on record as 128.8 ± 2.4 *↑ rel. units. In the assay on STAT5 (pTyr694/699), the “STAT5 (pTyr694/699) fluorescence intensity” value was 82.5 ± 3.5 *↑ rel. units.
